Source: ChEMBL document CHEMBL4229476, “Studies directed toward the asialoglycoprotein receptor mediated delivery of 5-fluoro-2'-deoxyuridine for hepatocellular carcinoma” (Bioorg Med Chem Lett, 2018)
The source made the active and inactive calls. The rule behind the calls is not given here.

System: HepG2
Test: Cytotoxicity against human HepG2 cells at 1.5 to 200 uM after 72 hrs by WST1 assay
Type: functional, cell-based

| Structure (SMILES) | Activity |
| --- | --- |
| O=c1[nH]c(=O)n([C@H]2C[C@H](O)[C@@H](CO)O2)cc1F | Active |
| CC(=O)N[C@H]1[C@H](OCCCCCCNC(=O)CCOCC(COCCC(=O)NCCCCCCO[C@@H]2O[C@H](CO)[C@H](O)[C@H](O)[C@H]2NC(C)=O)(COCCC(=O)NCCCCCCO[C@@H]2O[C@H](CO)[C@H](O)[C@H](O)[C@H]2NC(C)=O)NC(=O)CCCC(=O)NCCCCCCOP(=O)(O)OC[C@H]2O[C@@H](n3cc(F)c(=O)[nH]c3=O)C[C@@H]2O)O[C@H](CO)[C@H](O)[C@@H]1O | Active |
